Results reported in the supplement of paper PMC11003180.

Tests used:
Test in all cases: drug sensitivity score (DSS) from 5-dose viability curve (DSS (area-based score, 0 = no response)); higher = more sensitive (stronger viability inhibition); extreme values may be limits of the assay
[1] = system: MDCK p60AmotL2-inducible + doxycycline (p60AmotL2 expressing); settings: doxycycline: 10 ng/mL; 72 h
Method in brief: (§1)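 Two MDCK lines, parental and doxycycline-inducible, received doxycycline at 10 ng/mL in the medium before being plated at 2000 cells/well onto a pre-spotted 384-well oncology library of 528 drugs at five doses (1-10,000 nM). Incubation lasted 72 h at 37 °C. Viability was read by CellTiter-Glo luminescence, scaled per plate between vehicle and positive controls, and converted to drug sensitivity scores through Breeze curve fitting.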

[2] = system: MDCK wild-type + doxycycline; settings: doxycycline: 10 ng/mL; 72 h
Method in brief: as §1

[3] = system: MDCK wild-type - doxycycline; settings: doxycycline: none; 72 h
Method in brief: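 Parental MDCK cells, grown without doxycycline, were seeded at 2000 cells/well into 384-well plates pre-spotted with an oncology library of 528 drugs at five doses (1-10,000 nM). After 72 h at 37 °C, CellTiter-Glo luminescence was read. Viability was scaled per plate between vehicle and positive controls, and drug sensitivity scores were derived from dose-response curve fits in the Breeze pipeline.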

## CC(=O)N(O)CCCCCNC(=O)CCC(=O)N(O)CCCCCNC(=O)CCC(=O)N(O)CCCCCN [Deferoxamine]
[1]
  drug sensitivity score: 5.1
[2]
  drug sensitivity score: 3.9
[3]
  drug sensitivity score: 3.3

## CC[C@@](C)(Nc1ccnc(-c2c[nH]c3ncccc23)n1)C(=O)NCC(F)(F)F [Decernotinib]
[1]
  drug sensitivity score: 0
[2]
  drug sensitivity score: 0
[3]
  drug sensitivity score: 0

## COc1cc2c(cc1-c1c(C)noc1C)ncc1[nH]c(=O)n([C@H](C)c3ccccn3)c12 [I-BET151]
[1]
  drug sensitivity score: 10.9
[2]
  drug sensitivity score: 4.6
[3]
  drug sensitivity score: 0.6

## CC(=O)Nc1cccc(-n2c(=O)n(C3CC3)c(=O)c3c(Nc4ccc(I)cc4F)n(C)c(=O)c(C)c32)c1 [Trametinib]
[1]
  drug sensitivity score: 15.8
[2]
  drug sensitivity score: 7.4
[3]
  drug sensitivity score: 6.6

## CN(C)C(=O)c1cc2cnc(Nc3ccc(N4CCNCC4)cn3)nc2n1C1CCCC1 [Ribociclib]
[1]
  drug sensitivity score: 1.6
[2]
  drug sensitivity score: 0.8
[3]
  drug sensitivity score: 0

## Oc1ncnc2[nH]ncc12 [Allopurinol]
[1]
  drug sensitivity score: 0
[2]
  drug sensitivity score: 0
[3]
  drug sensitivity score: 0

## Cc1cccc(-c2[nH]c(CNc3ccccc3F)nc2-c2ccc3ncnn3c2)n1 [TEW-7197]
[1]
  drug sensitivity score: 4.3
[2]
  drug sensitivity score: 0
[3]
  drug sensitivity score: 1.1

## CC(C)n1cnc2c(NCCc3ccc(O)cc3)nc(-c3csc4ccccc34)nc21 [StemRegenin 1]
[1]
  drug sensitivity score: 1.5
[2]
  drug sensitivity score: 0.9
[3]
  drug sensitivity score: 2

## CC(=O)c1cc2c(o1)C(=O)c1ccccc1C2=O [Napabucasin]
[1]
  drug sensitivity score: 18.1
[2]
  drug sensitivity score: 18.5
[3]
  drug sensitivity score: 18.3

## COc1c(OCCCN2CCOCC2)ccc2c1N=C(NC(=O)c1cnc(N)nc1)N1CCN=C21 [Copanlisib]
[1]
  drug sensitivity score: 10.9
[2]
  drug sensitivity score: 6.2
[3]
  drug sensitivity score: 5.8

## O=C(O)c1ccc(O)c2ncccc12 [IOX-1]
[1]
  drug sensitivity score: 1.7
[2]
  drug sensitivity score: 1.6
[3]
  drug sensitivity score: 1.4

## CO[C@H]1C(=O)[C@]2(C)[C@@H](OC)C[C@H]3OC[C@@]3(OC(C)=O)[C@H]2[C@H](OC(=O)c2ccccc2)[C@]2(O)C[C@H](OC(=O)[C@H](O)[C@@H](NC(=O)OC(C)(C)C)c3ccccc3)C(C)=C1C2(C)C [Cabazitaxel]
[1]
  drug sensitivity score: 38
[2]
  drug sensitivity score: 37.7
[3]
  drug sensitivity score: 33.8

## CNC(=O)c1ccc(C)c(-n2c(C)cc(OCc3ccc(F)cc3F)c(Br)c2=O)c1
[1]
  drug sensitivity score: 0
[2]
  drug sensitivity score: 0
[3]
  drug sensitivity score: 0

## COc1cc2c(N3CCN(C(=O)Nc4ccc(OC(C)C)cc4)CC3)ncnc2cc1OCCCN1CCCCC1 [Tandutinib]
[1]
  drug sensitivity score: 0
[2]
  drug sensitivity score: 0
[3]
  drug sensitivity score: 0

## Cc1nc(C(=O)NCC(=O)O)c(O)c2ccc(Oc3ccccc3)cc12 [Roxadustat]
[1]
  drug sensitivity score: 0
[2]
  drug sensitivity score: 0
[3]
  drug sensitivity score: 0

## Cc1nc(Nc2n[nH]c3c2CN(C(=O)N[C@H](CN(C)C)c2ccccc2)C3(C)C)c2sccc2n1
[1]
  drug sensitivity score: 22.1
[2]
  drug sensitivity score: 18
[3]
  drug sensitivity score: 12.4

## CCn1c(-c2nonc2N)nc2cnc(Oc3cccc(NC(=O)c4ccc(OCCN5CCOCC5)cc4)c3)cc21
[1]
  drug sensitivity score: 4
[2]
  drug sensitivity score: 2.6
[3]
  drug sensitivity score: 0.8

## CN(C)CC#Cc1ccc(OCCCc2sc(N3CCc4cccc(C(=O)Nc5nc6ccccc6s5)c4C3)nc2C(=O)O)c(F)c1
[1]
  drug sensitivity score: 0
[2]
  drug sensitivity score: 0
[3]
  drug sensitivity score: 0

## COc1cccc(OCCCN)c1-c1cc(Nc2cnc(C#N)cn2)n[nH]1 [Prexasertib]
[1]
  drug sensitivity score: 3.5
[2]
  drug sensitivity score: 2.2
[3]
  drug sensitivity score: 0.8

## Cn1cnc2c(F)c(Nc3ccc(Br)cc3F)c(C(=O)NOCCO)cc21 [Binimetinib]
[1]
  drug sensitivity score: 5.3
[2]
  drug sensitivity score: 0
[3]
  drug sensitivity score: 0
